{"source": "patent US7928368B2", "about": "“Micropillar array electrospray chip” (Licentia Oy, priority 2007, dated 2011)", "tested_on": "rat hepatocytes", "assay": "metabolism sample: incubation of sibutramine with rat hepatocytes, metabolites detected by μPESI/MS", "assay_type": "in vitro ADME", "conditions": "R-enantiomer of sibutramine hydrochloride incubated with rat hepatocytes for 8 h, 2.5-μl injection, Q-TOF Micro", "experimental": "For bioanalysis experiments verapamil, angiotensin I, angiotensin II, substance P, and horse heart myoglobin were used as test compounds and 2.5 μl of each sample was pipetted to the sample introduction spot. For the measurements of linearity and sensitivity verapamil was dissolved into acetonitrile:water (95:5) with 0.1% formic acid at concentrations of 10 pM to 10 μM. The metabolism sample was prepared by incubating R-enantiomer of sibutramine hydrochloride (purity>99%) with rat hepatocytes for 8 h. After sample preparation the sample was evaporated dryness and the residue was diluted to 50 μl of methanol. 10 μl of sample was dissolved into 500 μl acetonitrile:water (95:5) with 0.1% formic acid.\nThe peptides (angiotensin I, angiotensin II, and substance P) and the protein (horse heart myoglobin) were diluted into 80% aqueous methanol containing 1% acetic acid (two separate samples). The concentrations were 5 μM for the peptides and 300 nM for horse heart myoglobin. Full-scan mass spectra ranging from m/z 400 to 750 were measured from the peptide mixture and m/z 700 to 950 from the protein in the positive mode. Sibutramine metabolism sample was measured with Q-TOF Micro. A mass spectrum of solvent blank sample was subtracted from that of metabolism sample. […]", "note": "Where a name gives a salt, the structure may show the parent alone.", "data": [{"smiles": "CC(C)CC(N(C)C)C1(c2ccc(Cl)cc2)CCC1", "note": "(stereo not shown) [sibutramine, sibutramine hydrochloride]", "values": [{"measurement": "sibutramine metabolites found in metabolism sample", "result": "small amounts of sibutramine glucuronides were found"}]}]}
